# In US20210179655A1, “Prodrugs of a JAK Inhibitor Compound for Treatment of Gastrointestinal Inflammatory Disease” (THERAVANCE BIOPHARMA R&D IP, LLC, priority 2015, published 2021):
# Key:
# JAK1 = JAK1 (Homo sapiens, UniProt P23458); assay: Biochemical JAK kinase assay (LanthaScreen) JAK1
# Protocol: (§1) A panel of four LanthaScreen JAK biochemical assays (JAK1, 2, 3 and Tyk2) were carried in a common kinase reaction buffer (50 mM HEPES, pH 7.5, 0.01% Brij-35, 10 mM MgCl2, and 1 mM EGTA). Recombinant GST-tagged JAK enzymes and a GFP-tagged STAT1 peptide substrate were obtained from Life Technologies.
# (§2) Serially diluted compounds were pre-incubated with each of the four JAK enzymes and the substrate in white 384-well microplates (Corning) at ambient temperature for 1 h. ATP was subsequently added to initiate the kinase reactions in 10 μL total volume, with 1% DMSO. […] The JAK1 kinase activity was also tested at 1 mM ATP concentration. […] The plates were allowed to incubate at ambient temperature for 1 h before being read on the EnVision reader (Perkin Elmer).
# (§3) For dose-response analysis, percent inhibition data were plotted vs. compound concentrations, and IC50 values were determined from a 4-parameter robust fit model with the Prism software (GraphPad Software). Results were expressed as pIC50 (negative logarithm of IC50) and subsequently converted to pKi (negative logarithm of dissociation constant, Ki) using the Cheng-Prusoff equation.
# [1] = Metabolic stability in homogenates from rat upper and lower intestinal content; type: in vitro ADME; details: 37° C.; for half-life: 10 μM; for half-life at 10 μM: rat, diluted 1:10 in DPBS
# Protocol: The conversion of compound 1 to tofacitinib was evaluated in the intestinal lumen content prepared from the various GI segments isolated from freshly sacrificed rats. Each segment of content from the duodenum, jejunum, ileum, and colon was diluted 1:10 in Dulbecco's phosphate buffer saline (DPBS) solution. […] The incubation was conducted in a water bath at 37° C. and time points were taken at 0, 5, 10, 20, 40 and 60 min. The total incubation volume was 400 μL and 40 μL aliquots were taken at each time point and diluted into 160 μL of 97% ACN+3% formic acid+an internal standard. The samples were centrifuged at 2200 rcf for 10 min and 50 μL of supernatant was diluted into 150 μL of water+1% formic acid.
# JAK3 = target: T1, JAK3 (Homo sapiens, UniProt P52333); assay: Biochemical JAK kinase assay (LanthaScreen) JAK3
# T1 sequence (P52333 1-1124): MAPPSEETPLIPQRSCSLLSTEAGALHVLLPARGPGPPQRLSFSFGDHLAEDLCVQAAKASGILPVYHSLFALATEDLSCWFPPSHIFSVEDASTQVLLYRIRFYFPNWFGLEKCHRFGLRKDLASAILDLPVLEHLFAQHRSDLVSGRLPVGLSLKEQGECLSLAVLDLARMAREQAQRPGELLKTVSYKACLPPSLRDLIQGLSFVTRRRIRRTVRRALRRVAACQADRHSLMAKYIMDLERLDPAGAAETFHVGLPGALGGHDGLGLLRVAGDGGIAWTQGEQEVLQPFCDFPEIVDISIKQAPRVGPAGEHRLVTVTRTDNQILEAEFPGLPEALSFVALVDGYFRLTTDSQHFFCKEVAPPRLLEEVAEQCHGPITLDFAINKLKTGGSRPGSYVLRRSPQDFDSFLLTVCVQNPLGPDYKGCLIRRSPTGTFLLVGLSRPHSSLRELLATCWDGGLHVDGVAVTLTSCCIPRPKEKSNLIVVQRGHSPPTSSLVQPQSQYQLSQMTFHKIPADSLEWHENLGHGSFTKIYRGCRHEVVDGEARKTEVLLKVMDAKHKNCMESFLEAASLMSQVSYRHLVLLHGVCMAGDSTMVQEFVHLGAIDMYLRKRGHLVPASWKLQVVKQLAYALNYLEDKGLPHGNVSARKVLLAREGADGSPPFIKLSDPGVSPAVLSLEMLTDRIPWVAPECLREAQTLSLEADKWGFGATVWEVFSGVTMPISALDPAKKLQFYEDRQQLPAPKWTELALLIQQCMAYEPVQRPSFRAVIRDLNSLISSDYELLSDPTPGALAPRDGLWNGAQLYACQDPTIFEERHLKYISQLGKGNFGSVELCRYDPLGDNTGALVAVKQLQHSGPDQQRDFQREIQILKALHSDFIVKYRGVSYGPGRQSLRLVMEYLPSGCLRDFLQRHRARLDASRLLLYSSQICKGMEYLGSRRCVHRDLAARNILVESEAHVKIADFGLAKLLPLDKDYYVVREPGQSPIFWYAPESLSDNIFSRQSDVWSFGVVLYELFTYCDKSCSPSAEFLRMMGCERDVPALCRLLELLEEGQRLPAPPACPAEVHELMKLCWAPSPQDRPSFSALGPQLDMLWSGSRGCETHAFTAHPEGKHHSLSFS
# Protocol: as §1, §2, §3
# Chain of JAK1 (P23458 whole entry): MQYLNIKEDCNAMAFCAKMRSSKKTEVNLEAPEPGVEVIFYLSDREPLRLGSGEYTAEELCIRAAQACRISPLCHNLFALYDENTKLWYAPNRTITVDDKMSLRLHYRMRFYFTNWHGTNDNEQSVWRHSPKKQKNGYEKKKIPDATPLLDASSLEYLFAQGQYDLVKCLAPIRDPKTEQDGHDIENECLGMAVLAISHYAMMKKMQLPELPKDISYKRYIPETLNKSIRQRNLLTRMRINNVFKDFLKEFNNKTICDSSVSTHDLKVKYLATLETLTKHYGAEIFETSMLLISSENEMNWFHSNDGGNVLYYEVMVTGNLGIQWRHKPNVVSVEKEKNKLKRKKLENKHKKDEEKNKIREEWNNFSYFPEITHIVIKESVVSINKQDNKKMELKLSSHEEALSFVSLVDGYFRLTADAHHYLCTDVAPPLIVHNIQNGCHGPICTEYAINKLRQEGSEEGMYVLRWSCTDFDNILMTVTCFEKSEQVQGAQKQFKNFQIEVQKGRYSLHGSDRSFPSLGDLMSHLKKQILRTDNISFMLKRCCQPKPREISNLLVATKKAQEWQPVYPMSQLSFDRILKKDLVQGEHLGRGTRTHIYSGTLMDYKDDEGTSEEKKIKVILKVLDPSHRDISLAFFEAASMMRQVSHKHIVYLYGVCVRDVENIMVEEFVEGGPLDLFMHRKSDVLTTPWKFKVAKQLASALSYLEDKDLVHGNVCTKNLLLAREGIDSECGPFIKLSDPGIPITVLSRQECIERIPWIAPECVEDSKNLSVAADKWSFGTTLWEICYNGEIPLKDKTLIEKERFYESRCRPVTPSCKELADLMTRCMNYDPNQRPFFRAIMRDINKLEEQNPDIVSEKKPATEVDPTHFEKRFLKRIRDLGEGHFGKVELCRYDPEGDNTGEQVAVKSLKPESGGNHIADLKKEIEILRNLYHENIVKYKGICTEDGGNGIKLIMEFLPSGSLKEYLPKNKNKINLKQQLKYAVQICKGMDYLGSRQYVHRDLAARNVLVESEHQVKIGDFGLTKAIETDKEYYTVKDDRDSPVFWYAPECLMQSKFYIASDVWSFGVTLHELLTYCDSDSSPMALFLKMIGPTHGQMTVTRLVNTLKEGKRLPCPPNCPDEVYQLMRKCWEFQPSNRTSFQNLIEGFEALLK
structure (smiles),measurement,setting,value
"C[C@@H]1CCN(C(=O)CC#N)C[C@@H]1N(C)c1ncnc2c1ccn2C(=O)N(C)CCN(C)C(=O)OCc1ccc(O[C@@H]2O[C@H](C(=O)O)[C@@H](O)[C@H](O)[C@H]2O)c([N+](=O)[O-])c1 [Compound 1, (2S,3S,4S,5R,6S)-6-(4-((((2-(4-(((3R,4R)-1-(2-cyanoacetyl)-4-methylpiperidin-3-yl)(methyl)amino)-N-methyl-7H-pyrrolo[2,3-d]pyrimidine-7-carboxamido)ethyl)(methyl)carbamoyl)oxy)methyl)-2-nitrophenoxy)-3,4,5-trihydroxytetrahydro-2H-pyran-2-carboxylic acid]",IC50,JAK1,> 10000 nM
same,Ki,JAK1,> 501 nM
same,half-life,[1]; Colon content,<5 min
same,half-life,[1]; Duodenum content,>60 min
same,half-life,[1]; Jejunum content,>60 min
same,half-life at 10 μM,"[1]; colon lumen content, Colon content",< 5 min
same,half-life at 10 μM,"[1]; duodenum lumen content, Duodenum content",> 60 min
same,half-life at 10 μM,"[1]; ileum lumen content, Ileum content",34 min
same,half-life at 10 μM,"[1]; jejunum lumen content, Jejunum content",> 60 min
same,Ki,JAK3,> 158 nM
